Several values for one entry are separate records, joined by “and”; a condition that tells them apart may be missing. Identical values can stand only once.
Assays:
[1] = Precipitation in slurry extract or leachate; format: physicochemical; details: pH 12.5, entries in parentheses
[2] = Paste air entrainment, Minimum air protocol
In short: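 Pastes of 400 g cementitious powder were hand-mixed 1 min, then machine-stirred 2 min at 25° C with the mixer 1.0 inch off the bottom and a 1.0 inch stroke. Water was set for a 115±5 mm mini-slump spread without additives. Air content came from the mass of a filled cylinder at 6, 36 and 66 min, with 1 min hand stirring before each reading.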

[3] = Air entrainment in fresh concrete (ASTM C 231-97); details: for Air: PCC cement concrete, no fly ash, no Air 40
Description: The sacrificial agents were added to the cementitious mixtures in several ways: • 1) mixing together with water and air entrainment agent solution • 2) premixed with the fly ash • 3) post-added into the fresh concrete which already contained the air entrainment agent.

[4] = Paste air entrainment, Maximum air protocol; details: for Air entrained at 66 min: Air 30 (0.0125 wt %)/X/ButOH=1/4/4, X = the labelled sulfonated SA
In short: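 Pastes of 400 g cementitious powder in water plus additives, hand-mixed 1 min then mixer-stirred 2 min at 25 °C; water/binder ratio set so additive-free paste gives 115±5 mm mini-slump spread at 10 min. Air content calculated from mass of paste filling a fixed-volume cylinder at 6, 36 and 66 min, paste at rest between readings and hand-stirred 1 min beforehand.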

[5] = Adsorption/precipitation of SA or AEA in 10 wt % aqueous fly ash or cement slurries at pH 12.5; format: physicochemical; details: initial SA 3 mM

Sodium Di-isopropopyl naphthalene sulfonate [ND]
Precipitation (wt % precipitated) ([1]; solution extracted from 10 wt % fly ash B1 (LOI 4.36%) slurry): 0 wt %
Precipitation (wt % precipitated) ([1]; solution extracted from 10 wt % fly ash C1, class C (LOI 1.62%) slurry): 31 wt %
Precipitation (wt % precipitated) ([1]; solution extracted from 10 wt % fly ash C2 (LOI 3.32%) slurry): 0 wt %
Precipitation (wt % precipitated) ([1]; solution extracted from 10 wt % fly ash M1 (LOI […]) slurry): 0 wt %
Precipitation (wt % precipitated) ([1]; solution extracted from 10 wt % fly ash M2 (LOI 5.34%) slurry): 0 wt %
Precipitation (wt % precipitated) ([1]; solution extracted from 10 wt % fly ash M3 (LOI 11.33%) slurry): 0 wt %
Precipitation (wt % precipitated) ([1]; solution extracted from 10 wt % fly ash N (LOI 0.30%) slurry): 0 wt %
Air entrained ([2]; 50:50 fly ash B1 (LOI 4.36%):PCA paste, 0.1 wt % Air 30 alone or with 0.05 wt % of the SA): 4 vol %
Air entrained ([2]; 50:50 fly ash C1 (LOI 1.62%):PCA paste, 0.1 wt % Air 30 alone or with 0.05 wt % of the SA): 4 vol %
Air entrained ([2]; 50:50 fly ash D (LOI […]):PCA paste, 0.1 wt % Air 30 alone or with 0.05 wt % of the SA): 3 vol %
Air entrained ([2]; 50:50 fly ash M1 (LOI […]):PCA paste, 0.1 wt % Air 30 alone or with 0.05 wt % of the SA): 5 vol %
Air entrained ([2]; 50:50 fly ash M2 (LOI 5.34%):PCA paste, 0.1 wt % Air 30 alone or with 0.05 wt % of the SA): 4 vol %
Air entrained ([2]; 50:50 fly ash M3 (LOI 11.33%):PCA paste, 0.1 wt % Air 30 alone or with 0.05 wt % of the SA): 4 vol %
Air entrained ([2]; 50:50 fly ash R (LOI […]):PCA paste, 0.1 wt % Air 30 alone or with 0.05 wt % of the SA): 3 vol %
Air entrained ([2]; PCA cement paste, 0.1% SA or AEA alone, Minimum air protocol): 3 vol %
Average of air entrained ([2]; over the fly ash:PCA pastes of Table 7, 0.1 wt % Air 30 alone or with 0.05 wt % of the SA): 4%
Air ([3]; ND alone 0.001 % CM): 2.3%
Air ([3]; ND alone 0.003 % CM): 4.1% and 3.1%
Air ([3]; ND alone 0.005 % CM): 4.6% and 4.8%
Air ([3]; ND alone 0.010 % CM): 4.6%
Air ([3]; ND alone 0.020 % CM): 3.9%
Air ([3]; ND alone 0.030 % CM): 3.8%
Air ([3]; ND alone 0.040 % CM): 3.9%
increase in air entrained above the control values ([3]; cement-only concrete without air entrainment agents, various dosages): 2-3%
Air entrained at 66 min ([4]; 50:50 fly ash B1 (LOI 4.36%):PCA paste): 17 vol %
Air entrained at 66 min ([4]; 50:50 fly ash D (LOI […]):PCA paste): 24 vol %
Air entrained at 66 min ([4]; 50:50 fly ash M2 (LOI 5.34%):PCA paste): 11 vol %
Air entrained ([4]; PCA cement paste, 0.0125% SA or AEA alone, Maximum air protocol): 7 vol %
Air entrained at 66 min ([4]; PCA paste, no fly ash): 23 vol %
air entrained (average) ([4]; fly ash:cement pastes, SA added at four (4) times the fixed Air 30 dosage (0.0125%)): 14%
Adsorption (wt % Adsorbed) ([5]; 10 wt % fly ash B1 (LOI 4.36%) slurry, Air 30/Air 40 0.105 wt %): 14 wt %
Adsorption (wt % Adsorbed) ([5]; 10 wt % fly ash C1, class C (LOI 1.62%) slurry, Air 30/Air 40 0.105 wt %): 84 wt %
Adsorption (wt % Adsorbed) ([5]; 10 wt % fly ash C2 (LOI 3.32%) slurry): 17 wt %
Adsorption (wt % Adsorbed) ([5]; 10 wt % fly ash M1 (LOI […]) slurry, Air 30/Air 40 0.105 wt %): 27 wt %
Adsorption (wt % Adsorbed) ([5]; 10 wt % fly ash M2 (LOI 5.34%) slurry, Air 30/Air 40 0.105 wt %): 13 wt %
Adsorption (wt % Adsorbed) ([5]; 10 wt % fly ash M3 (LOI 11.33%) slurry, Air 30/Air 40 0.105 wt %): 18 wt %
Adsorption (wt % Adsorbed) ([5]; 10 wt % fly ash N (LOI 0.30%) slurry): 26 wt %

— patent US7892350B2, “Sacrificial agents for fly ash concrete” (Boral Material Technologies Inc., priority 2003, dated 2011)
